Columns and labels:
histamine H4 receptor = molecular target: T1, histamine H4 receptor (Homo sapiens, UniProt Q9H3N8); assay: Inhibition of proliferation of CFU rich in H4 receptor (FIG. 4); type: cell-based; settings: for activity on CFU proliferation when using an anti H4: FIG. 4, with an anti H4
T1 construct: endogenous in cells; host or cells: CFU (colony-forming units) rich in H4 receptor

cystic fibrosis patients = settings: background statement; cited from earlier work
cystic fibrosis patient [1] = assay: FEV1 (Forced Expiratory Volume in 1 second) in patients with cystic fibrosis treated with tritoqualine; type: in vivo, human
Description: During the initial consultation, a treatment based on tritoqualine was started at a daily dose of 200 mg.
Before therapy with tritoqualine, the FEV1 (Forced Expiratory Volume in 1 second) of this young patient was 0.39 L/s or 55.71% of the normal expected value (based on age, sex, and size). The flow rate was measured with a Jaeger® MasterScreen® Body plethysmography apparatus.
(§1) This level of ventilatory flow signals a severe respiratory impairment. This patient also had 15 lung infections per year prior to treatment. After 6 months of treatment with tritoqualine at a dose of 200 mg/day, the ventilatory flows were again measured. At this second visit, the FEV1 parameter was measured at 0.50 L/s. […] During the third visit, months after the first visit, the flows were again measured.
Before therapy with tritoqualine, the FEV1 of the patient was measured at 0.45 L/s or only 69.23% of the normal expected value (based on age, sex, and size).
(§2) This patient had had 8 lung infections per year prior to treatment. After 6 months of treatment at the daily dose of 400 mg of tritoqualine, the FEV1 parameter was measured again during a second consultation. The FEV1 parameter measured during this consultation went from 0.45 L/s to 0.50 L/s, or an improvement of 11.11% of the ventilatory flows.
A child with cystic fibrosis was treated during their first consultation with a dose of 300 mg of tritoqualine.
(§3) Before therapy with tritoqualine, the FEV1 of the patient was measured at 0.70 L/s, or 63.64% of the normal expected value (based on age, sex, and size). This patient had had 12 pulmonary infections per year before the treatment. After a 6-month treatment with a daily dose of 300 mg of tritoqualine, the FEV1 parameter was measured at their second consultation at 1.0 L/s. This represents an improvement of 42.86% over the initial visit. (100*([…])/0.70). After 12 months of treatment, the FEV1 parameter measured during the third consultation was 1.20 L/s or 71.43% improvement compared to the initial visit. (100*(1.20-0.70)/0.70).

[2] = white powder; degrades into cotarnine and phthalic acid; cited from earlier work
histidine decarboxylase = molecular target: T2, histidine decarboxylase (Homo sapiens, UniProt P19113); settings: background statement; cited from earlier work
T2 sequence (P19113 1-662): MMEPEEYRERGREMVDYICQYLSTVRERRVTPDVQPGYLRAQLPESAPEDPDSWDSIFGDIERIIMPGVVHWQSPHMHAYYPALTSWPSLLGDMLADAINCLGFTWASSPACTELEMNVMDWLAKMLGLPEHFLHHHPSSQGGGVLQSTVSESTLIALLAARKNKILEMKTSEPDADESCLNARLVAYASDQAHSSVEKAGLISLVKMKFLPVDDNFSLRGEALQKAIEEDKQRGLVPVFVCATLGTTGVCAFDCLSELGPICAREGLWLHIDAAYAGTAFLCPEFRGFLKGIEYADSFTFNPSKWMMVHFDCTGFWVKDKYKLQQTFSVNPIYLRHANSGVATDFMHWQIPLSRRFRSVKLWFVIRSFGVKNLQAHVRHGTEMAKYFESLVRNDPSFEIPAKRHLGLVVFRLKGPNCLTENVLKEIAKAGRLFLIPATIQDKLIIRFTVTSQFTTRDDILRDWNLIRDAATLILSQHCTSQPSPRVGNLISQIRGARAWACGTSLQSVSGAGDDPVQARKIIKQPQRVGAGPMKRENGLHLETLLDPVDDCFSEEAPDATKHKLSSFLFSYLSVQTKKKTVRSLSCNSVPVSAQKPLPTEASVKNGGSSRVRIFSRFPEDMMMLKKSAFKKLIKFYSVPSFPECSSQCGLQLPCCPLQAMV

cystic fibrosis patient [3] = assay: Number of lung infections (superinfections) per year in patients with cystic fibrosis treated with tritoqualine; type: in vivo, human
Description: as §1
Over 12 months, the number of superinfections decreased from 15 to only 4 infections.
as §2
During the 12-month treatment with tritoqualine (400 mg daily), the patient benefited from a significant reduction in pulmonary infections, from 8 initially to only 3 infections after 12 months of treatment.
as §3
These decreased from 12 to 3 infections in one single year.

T1 sequence (Q9H3N8 whole entry, species assumed): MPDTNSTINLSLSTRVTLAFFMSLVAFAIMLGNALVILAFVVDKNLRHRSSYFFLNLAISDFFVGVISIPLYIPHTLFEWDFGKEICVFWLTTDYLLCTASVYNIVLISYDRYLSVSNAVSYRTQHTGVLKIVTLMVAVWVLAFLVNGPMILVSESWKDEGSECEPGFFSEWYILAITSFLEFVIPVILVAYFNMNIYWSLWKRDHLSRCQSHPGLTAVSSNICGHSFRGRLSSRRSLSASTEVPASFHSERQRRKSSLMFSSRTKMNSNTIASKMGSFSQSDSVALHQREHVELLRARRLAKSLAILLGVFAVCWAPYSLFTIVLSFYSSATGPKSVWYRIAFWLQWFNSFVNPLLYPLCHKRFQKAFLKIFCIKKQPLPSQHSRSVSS

**Q.** Which “activity on CFU proliferation when using an anti H4” value (histamine H4 receptor) does the source give for `NC(=NCc1ccc(Cl)cc1)SCCCc1cnc[nH]1` [Clobenpropit] here?
**A.** Its value is “greatly reduced”.

**Q.** With `CC(C)(C)c1cc(C(C)(C)C)c(NC(=O)c2c[nH]c3ccccc3c2=O)cc1O` [Kalydeco] as the molecule, how does the “improvement in FEV1” value (cystic fibrosis patients) read?
**A.** The value was 10%.

**Q.** What does the source list for `CCOc1c(N)c2c(c(OCC)c1OCC)C(C1c3c(cc4c(c3OC)OCO4)CCN1C)OC2=O` (centres unmarked) [tritoqualine, 7-Amino-4,5,6-triethoxy-3-(5,6,7,8-tetrahydro-4-methoxy-6-methyl-1,3-dioxolo[4,5-g]isoquinolin-5-yl) phthalide]?
**A.** increase of FEV1 compared to initial flows (cystic fibrosis patient [1]; Example 1: child, 200 mg/day, after 6 months): 28.2%; FEV1 (cystic fibrosis patient [1]; Example 1: child, 200 mg/day, after 6 months (second visit), before therapy 0.39 L/s): 0.50 L/s; improvement of FEV1 compared to initial rates (cystic fibrosis patient [1]; Example 1: child, 200 mg/day, third visit): 58.7%; FEV1 (cystic fibrosis patient [1]; Example 1: child, 200 mg/day, third visit, before therapy 0.39 L/s): 0.62 L/s; increase of ventilatory flows (cystic fibrosis patient [1]; Example 1: summary statement): more than 50%; improvement of ventilatory flows (FEV1) (cystic fibrosis patient [1]; Example 2: adult, 400 mg/day, after 6 months vs baseline): 11.11%; FEV1 (cystic fibrosis patient [1]; Example 2: adult, 400 mg/day, after 6 months, before therapy 0.45 L/s): 0.50 L/s; increase in FEV1 compared to the initial visit (cystic fibrosis patient [1]; Example 2: adult, 400 mg/day, after 12 months): 28.89%; FEV1 (cystic fibrosis patient [1]; Example 2: adult, 400 mg/day, after 12 months, before therapy 0.45 L/s): 0.58 L/s; improvement of FEV1 over the initial visit (cystic fibrosis patient [1]; Example 3: child, 300 mg/day, after 6 months): 42.86%; FEV1 (cystic fibrosis patient [1]; Example 3: child, 300 mg/day, after 6 months, before therapy 0.70 L/s): 1.0 L/s; improvement of FEV1 compared to the initial visit (cystic fibrosis patient [1]; Example 3: child, 300 mg/day, after 12 months): 71.43%; FEV1 (cystic fibrosis patient [1]; Example 3: child, 300 mg/day, after 12 months, before therapy 0.70 L/s): 1.20 L/s; proliferation of CFU rich in H4 receptor (histamine H4 receptor; FIG. 4): capable of inhibiting the proliferation; activity on CFU proliferation when using an anti H4 (histamine H4 receptor): greatly reduced; sensitivity to light [2]: very sensitive to light; inhibitory action on histidine decarboxylase (histidine decarboxylase): very low; number of superinfections (cystic fibrosis patient [3]; Example 1: child, 200 mg/day, over 12 months, 15 per year prior to treatment): 4 infections; reduction factor of number of infections (cystic fibrosis patient [3]; Example 1: summary statement): divided by three; number of pulmonary infections (cystic fibrosis patient [3]; Example 2: adult, 400 mg/day, after 12 months, 8 initially): 3 infections; number of pulmonary infections (cystic fibrosis patient [3]; Example 3: child, 300 mg/day, in one year, 12 before treatment): 3 infections
